Assay results published in patent US12478624B2, “Heterocyclic derivatives, pharmaceutical compositions and their use in the treatment or amelioration of cancer” (Tolremo Therapeutics AG, priority 2019, dated 2025).
pEC50: −log10 of the molar value.

Experiments:
A375 cells = experiment: Assay 1: A375 cells treated with S1152, S1008 and compound, immunofluorescence (sc-365823) signal; format: cell-based; conditions: 1 μM S1152 + 0.5 μM S1008, one day
Experimental: One thousand four hundred A375 cells were seeded in each well of a 384 well microplate. One day later they were treated with 1 μM S1152 (Selleckchem) in dimethyl sulfoxide, 0.5 μM S1008 (Selleckchem) and dose ranges of invention compounds for one day in Dulbecco's Modified Eagle's Medium supplemented with 10% fetal calf serum and 2 mM (2S)-2-amino-4-carbamoylbutanoic acid. Wells were incubated with 4% polyoxymethylene (Sigma Aldrich 158127) at ambient temperature. […] After one minute phosphate-buffered saline was replaced with 0.2% polyethylene glycol octylphenyl ether in phosphate-buffered saline. […] 1% aminoethanoic acid in phosphate-buffered saline was added for ten minutes at ambient temperature. […] After one hour at ambient temperature in the dark, signal in wells was measured with a Acumen Cellista. 3,8-Diamino-5-[3-(diethylmethylammonio)propyl]-6-phenylphenanthridinium diiodide-positive objects were defined in FL3 (565-600 nm) with a perimeter between 50-800 μm and a total intensity of 10000-1000000 FLU. Signal in FL2 (500-530 nm) was measured in defined objects. A normalized ratio of total In FL2 over total In FL3 staining was log transformed. A non-linear regression (variable slope, 4 parameters) was used to calculate EC50 values using GraphPad Prism (Version 7.0d).
In an alternative procedure, assay 1 has been affected by changing the counteratain. […] Cells were incubated with 0.5 μg/ml 2-(4-Amidinophenyl)-6-indolecarbamidine dihydrochloride, 4′,6-Diamidino-2-phenylindole dihydrochloride (Sigma D9542) in phosphate-buffered saline for at least 30 minutes at ambient temperature in the dark. A Celigo Imager (Nexcelom) was used to acquire images in the blue and green channel. The blue channel was used as a mask to define the area for the green signal. The average integrated intensity of the green signal was normalized and a non-linear regression (variable slope, 4 parameter) was used to calculate the EC50 values using GraphPad Prism (Version 8.4)

OPM-2 = experiment: Assay 2: multiple myeloma cellular efficacy, PrestoBlue cell proliferation/survival; format: cell-based; conditions: Homo sapiens, 96 h, OPM-2 cells, 4 days
Experimental: Multiple Myeloma Cellular Efficacy:
10000 OPM-2 (ACC50; DSMZ) were plated into wells of a 384 well plate (Greiner 781090). Cells were treated for 4 days with a dose range of compound or vehicle. At the end of the experiment cells were stained directly with PrestoBlue (ThermoFisher Scietific; A13262) for 2 hours at 37° C. in a humidified incubator according to manufactor's instruction. To assess the relative cell number the PrestoBlue signal was measured using either a TecanM1000Pro reader or a Tecan Sparks reader following the manufactor's instructions. Background (no cells) values were subtracted and set in relation to the vehicle control. To assess the EC50 of each compound the relative fluorescence value was plotted against the compound concentration after log transformation. Data were fitted in a nonlinear manner with a variable slope (four parameters) using graphpad prism software. Cellular efficacy of compounds was evaluated in the multiple myeloma cell line OPM-2 using the cell proliferation/survival assay PrestoBlue. EC50 values are classified as indicated below.

Structure (SMILES)	pEC50 (A375 cells)	also measured
COc1cncc(-c2cc(Nc3cccc(F)c3)nc([C@H]3CC[C@@H](C)N(C(C)=O)C3)n2)c1 [Compound 00003]		pEC50 (OPM-2): < 5.00
CC(=O)N1C[C@H](c2nc(Nc3cccc(N4CCCC4=O)c3)cc(-c3cccnc3)n2)CC[C@@H]1C [Compound 00048, 1-(3-((2-((3R,6S)-1-acetyl-6-methylpiperidin-3-yl)-6-(pyridin-3-yl)pyrimidin-4-yl)amino)phenyl)pyrrolidin-2-one]	> 6.70	
COc1cncc(-c2cc(Nc3cccc(Cl)c3)nc([C@@H]3CC[C@H](C)N(C(C)=O)C3)n2)c1 [Compound 00074, 1-((2S,5R)-5-(4-((3-chlorophenyl)amino)-6-(5-methoxypyridin-3-yl)pyrimidin-2-yl)-2-methylpiperidin-1-yl)ethan-1-one]	> 6.70	
CC(=O)N1C[C@H](c2nc(Nc3cc(F)cc(-c4cnn(C)c4)c3)cc(-c3cncc(N4C[C@@H]5C[C@H]4CO5)c3)n2)CC[C@@H]1C [Compound 00090, 1-((2S,5R)-5-(4-(5-((1S,4S)-2-oxa-5-azabicyclo-[2.2.1]heptan-5-yl)pyridin-3-yl)-6-((3-fluoro-5-(1-methyl-1H-pyrazol-4-yl)phenyl)amino)pyrimidin-2-yl)-2-methylpiperidin-1-yl)ethan-1-one]		pEC50 (OPM-2): > 6.70
CC(=O)N1C[C@H](c2nc(Nc3ccnc(F)c3)cc(-c3cncc(N4CCCC4=O)c3)n2)CC[C@@H]1C [Compound 00106, 1-(5-(2-((3R,6S)-1-acetyl-6-methylpiperidin-3-yl)-6-((2-fluoropyridin-4-yl)amino)pyrimidin-4-yl)pyridin-3-yl)pyrrolidin-2-one]	> 6.70	
CC(=O)N1C[C@H](c2nc(Nc3ccnc(C)c3)cc(-c3cncc(N4CCCC4=O)c3)n2)CC[C@@H]1C [Compound 00108, 1-(5-(2-((3R,6S)-1-acetyl-6-methylpiperidin-3-yl)-6-((2-methylpyridin-4-yl)amino)pyrimidin-4-yl)pyridin-3-yl)pyrrolidin-2-one]	6.00 to 6.70	
CC(=O)N1C[C@H](c2nc(Nc3ccnc(C)c3)cc(-c3cncc(C(=O)N(C)C)c3)n2)CC[C@@H]1C [Compound 00109, 5-(2-((3R,6S)-1-acetyl-6-methylpiperidin-3-yl)-6-((2-methylpyridin-4-yl)amino)pyrimidin-4-yl)-N,N-dimethylnicotinamide]	< 5.00	
COc1cc(-c2cc(Nc3ccnc(C)c3)nc([C@@H]3CC[C@H](C)N(C(C)=O)C3)n2)cnc1OC [Compound 00110, 1-((2S,5R)-5-(4-(5,6-dimethoxypyridin-3-yl)-6-((2-methylpyridin-4-yl)amino)pyrimidin-2-yl)-2-methylpiperidin-1-yl)ethan-1-one]	< 5.00	
CC(=O)N1C[C@H](c2nc(Nc3ccnc(C)c3)cc(-c3cncc(N4CC(C(N)=O)C4)c3)n2)CC[C@@H]1C [Compound 00114, 1-(5-(2-((3R,6S)-1-acetyl-6-methylpiperidin-3-yl)-6-((2-methylpyridin-4-yl)amino)pyrimidin-4-yl)pyridin-3-yl)azetidine-3-carboxamide]	< 5.00	
CC(=O)N1C[C@H](c2nc(Nc3ccnc(C)c3)cc(-c3cncc(C4COC4)c3)n2)CC[C@@H]1C [Compound 00127, 1-((2S,5R)-2-methyl-5-(4-((2-methylpyridin-4-yl)amino)-6-(5-(oxetan-3-yl)pyridin-3-yl)pyrimidin-2-yl)piperidin-1-yl)ethan-1-one]	> 6.70	
CC(=O)N1C[C@H](c2nc(Nc3cncc(C(F)F)c3)cc(-c3cnccn3)n2)CC[C@@H]1C [Compound 00129, 1-((2S,5R)-5-(4-((5-(difluoromethyl)pyridin-3-yl)amino)-6-(pyrazin-2-yl)pyrimidin-2-yl)-2-methylpiperidin-1-yl)ethan-1-one]	> 6.70	
COc1cncc(-c2cc(Nc3cncc(C)c3)nc([C@H]3CC[C@H](C)N(C(C)=O)C3)n2)c1 [Compound 00133, 1-((2S,5S)-5-(4-(5-methoxypyridin-3-yl)-6-((5-methylpyridin-3-yl)amino)pyrimidin-2-yl)-2-methylpiperidin-1-yl)ethan-1-one]		pEC50 (A375 cells; Homo sapiens, A-375, 24 h): < 5.00

More lines, main results first:

pEC50 (A375 cells)	Structure (SMILES)	also measured
> 6.70	CC(=O)N1C[C@H](c2nc(Nc3cncc(C)c3)cc(-c3cccnc3)n2)CC[C@@H]1C (racemic) [Compound 00096, (+/−)-cis-1-(2-methyl-5-(4-((5-methylpyridin-3-yl)amino)-6-(pyridin-3-yl)pyrimidin-2-yl)piperidin-1-yl)ethan-1-one]	pEC50 (OPM-2): 6.00 to 6.70
6.00 to 6.70	CC(=O)N1C[C@H](c2nc(Nc3ccc4c(c3)B(O)OC4)cc(-c3cccnc3)n2)CC[C@@H]1C [Compound 00034, 1-((2S,5R)-5-(4-((1-hydroxy-1,3-dihydrobenzo[c][1,2]oxaborol-6-yl)amino)-6-(pyridin-3-yl)pyrimidin-2-yl)-2-methylpiperidin-1-yl)ethan-1-one]	
> 6.70	CC(=O)N1C[C@H](c2nc(Nc3ccc4c(=O)[nH]ccc4c3)cc(-c3cccnc3)n2)CC[C@@H]1C [Compound 00035, 6-((2-((3R,6S)-1-acetyl-6-methylpiperidin-3-yl)-6-(pyridin-3-yl)pyrimidin-4-yl)amino)isoquinolin-1(2H)-one]	
5.00 to 6.00	CC(=O)Nc1ccc(Nc2cc(-c3cccnc3)nc([C@@H]3CC[C@H](C)N(C(C)=O)C3)n2)cc1O [Compound 00036, N-(4-((2-((3R,6S)-1-acetyl-6-methylpiperidin-3-yl)-6-(pyridin-3-yl)pyrimidin-4-yl)amino)-2-hydroxyphenyl)acetamide]	
6.00 to 6.70	CC(=O)N1C[C@H](c2nc(Nc3ccc4nc(C)oc4c3)cc(-c3cccnc3)n2)CC[C@@H]1C [Compound 00037, 1-((2S,5R)-2-methyl-5-(4-((2-methylbenzo[d]oxazol-6-yl)amino)-6-(pyridin-3-yl)pyrimidin-2-yl)piperidin-1-yl)ethan-1-one]	
6.00 to 6.70	CC(=O)N1C[C@H](c2nc(Nc3ccc(O)cc3)cc(-c3cccnc3)n2)CC[C@@H]1C [Compound 00071, 1-((2S,5R)-5-(4-((4-hydroxyphenyl)amino)-6-(pyridin-3-yl)pyrimidin-2-yl)-2-methylpiperidin-1-yl)ethan-1-one]	
> 6.70	CC(=O)N1C[C@H](c2nc(Nc3cccc(O)c3)cc(-c3cccnc3)n2)CC[C@@H]1C [Compound 00075, 1-((2S,5R)-5-(4-((3-hydroxyphenyl)amino)-6-(pyridin-3-yl)pyrimidin-2-yl)-2-methylpiperidin-1-yl)ethan-1-one]	
6.00 to 6.70	CC(=O)N1C[C@H](c2nc(Nc3ccc4c(c3)NC(=O)C4)cc(-c3cccnc3)n2)CC[C@@H]1C [Compound 00076, 6-((2-((3R,6S)-1-acetyl-6-methylpiperidin-3-yl)-6-(pyridin-3-yl)pyrimidin-4-yl)amino)indolin-2-one]	
> 6.70	CC(=O)N1C[C@H](c2nc(Nc3ccc4nccnc4c3)cc(-c3cccnc3)n2)CC[C@@H]1C [Compound 00120, 1-((2S,5R)-2-methyl-5-(4-(pyridin-3-yl)-6-(quinoxalin-6-ylamino)pyrimidin-2-yl)piperidin-1-yl)ethan-1-one]	
> 6.70	CC(=O)N1C[C@H](c2nc(Nc3ccc4ncncc4c3)cc(-c3cccnc3)n2)CC[C@@H]1C [Compound 00121, 1-((2S,5R)-2-methyl-5-(4-(pyridin-3-yl)-6-(quinazolin-6-ylamino)pyrimidin-2-yl)piperidin-1-yl)ethan-1-one]	
6.00 to 6.70	CC(=O)N1C[C@H](c2nc(Nc3ccc4nncnc4c3)cc(-c3cccnc3)n2)CC[C@@H]1C [Compound 00122, 1-((2S,5R)-5-(4-(benzo[e][1,2,4]triazin-6-ylamino)-6-(pyridin-3-yl)pyrimidin-2-yl)-2-methylpiperidin-1-yl)ethan-1-one]	
5.00 to 6.00	CC(=O)N1C[C@H](c2nc(Nc3cncc(N4CCCC4=O)c3)cc(-c3cccnc3)n2)CC[C@@H]1C [Compound 00135, 1-(5-((2-((3R,6S)-1-acetyl-6-methylpiperidin-3-yl)-6-(pyridin-3-yl)pyrimidin-4-yl)amino)pyridin-3-yl)pyrrolidin-2-one]	
> 6.70	CC(=O)N1C[C@H](c2nc(Nc3cc(F)cc(-c4nnco4)c3)cc(-c3cccnc3)n2)CC[C@@H]1C [Compound 00166, 1-((2S,5R)-5-(4-((3-fluoro-5-(1,3,4-oxadiazol-2-yl)phenyl)amino)-6-(pyridin-3-yl)pyrimidin-2-yl)-2-methylpiperidin-1-yl)ethan-1-one]	
